Measurements from patent US6534524B1, “Indazole compounds and pharmaceutical compositions for inhibiting protein kinases, and methods for their use” (Agouron Pharmaceuticals, Inc., priority 1999, dated 2003).
pIC50, pKi: −log10 of the molar value. Where “and” joins values, the source holds several entries; their conditions need not be identical. Equal entries are not always repeated. Where two headings read alike, the source gives them in different places. Marks after values point to notes of the source that are not given here.

What was measured:
CDK4/Cyclin D3 complex = CDK4/Cyclin D3 complex (Homo sapiens, UniProt P11802); experiment: CDK4/Cyclin D assay ([32P]ATP, Rb fragment)
CDK4/Cyclin D3 complex, sequence (P11802 whole entry, the tested form may be a part): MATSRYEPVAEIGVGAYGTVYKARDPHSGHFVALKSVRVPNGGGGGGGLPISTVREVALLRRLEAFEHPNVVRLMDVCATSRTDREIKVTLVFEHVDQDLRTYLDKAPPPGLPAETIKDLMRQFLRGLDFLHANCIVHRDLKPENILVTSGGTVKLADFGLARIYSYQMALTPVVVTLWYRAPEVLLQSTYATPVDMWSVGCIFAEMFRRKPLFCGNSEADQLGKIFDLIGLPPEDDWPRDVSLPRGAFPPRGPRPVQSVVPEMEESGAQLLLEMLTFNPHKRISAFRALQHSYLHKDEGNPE
CDK4/Cyclin D3 complex, sequence (P30281 whole entry partner, the tested form may be a part): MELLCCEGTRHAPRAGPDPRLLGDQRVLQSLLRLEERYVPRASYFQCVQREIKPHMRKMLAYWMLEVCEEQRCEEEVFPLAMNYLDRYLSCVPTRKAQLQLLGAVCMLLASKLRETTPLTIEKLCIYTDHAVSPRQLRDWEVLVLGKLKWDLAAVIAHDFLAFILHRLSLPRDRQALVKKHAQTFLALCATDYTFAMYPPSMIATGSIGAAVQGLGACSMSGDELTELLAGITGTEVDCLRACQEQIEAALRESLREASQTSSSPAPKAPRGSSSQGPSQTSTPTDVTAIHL

[1] = molecular target: unphosphorylated VEGF-R2Δ50 (FLVK) (Homo sapiens, UniProt P35968, DEL940-989/E990V); experiment: VEGF-R2 coupled spectrophotometric assay, unphosphorylated VEGF-R2Δ50 (FLVK); conditions: for pKi: FLVK Ki, Table 1
unphosphorylated VEGF-R2Δ50 (FLVK), sequence (P35968 with tags, fused parts or gaps DEL940-989/E990V limits assumed): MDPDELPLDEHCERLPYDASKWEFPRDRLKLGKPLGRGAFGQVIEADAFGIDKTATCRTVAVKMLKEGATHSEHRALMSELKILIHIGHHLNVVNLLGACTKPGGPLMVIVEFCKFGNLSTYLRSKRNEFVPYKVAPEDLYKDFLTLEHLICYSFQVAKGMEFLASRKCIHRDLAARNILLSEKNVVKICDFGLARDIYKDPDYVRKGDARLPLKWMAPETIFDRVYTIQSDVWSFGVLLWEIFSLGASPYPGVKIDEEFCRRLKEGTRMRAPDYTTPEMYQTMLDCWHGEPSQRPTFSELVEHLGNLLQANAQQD

[2] = molecular target: phosphorylated VEGF-R2Δ50 (FLVK-P) (Homo sapiens, UniProt P35968, DEL940-989/E990V); experiment: VEGF-R2 coupled spectrophotometric assay, phosphorylated VEGF-R2Δ50 (FLVK-P)
phosphorylated VEGF-R2Δ50 (FLVK-P), sequence (P35968 with tags, fused parts or gaps DEL940-989/E990V limits assumed): as above

human CHK1 (FL-CHK1) = molecular target: T1, human CHK1 (FL-CHK1) (Homo sapiens, UniProt O14757); experiment: CHK1 assay (coupled spectrophotometric, Syntide-2); format: biochemical; conditions: read-out: CHK-1 Ki
T1 construct: C-terminally His-tagged full-length human CHK1 (FL-CHK1); made in house; host or cells: baculovirus/insect cell system
T1 sequence (O14757 1-476): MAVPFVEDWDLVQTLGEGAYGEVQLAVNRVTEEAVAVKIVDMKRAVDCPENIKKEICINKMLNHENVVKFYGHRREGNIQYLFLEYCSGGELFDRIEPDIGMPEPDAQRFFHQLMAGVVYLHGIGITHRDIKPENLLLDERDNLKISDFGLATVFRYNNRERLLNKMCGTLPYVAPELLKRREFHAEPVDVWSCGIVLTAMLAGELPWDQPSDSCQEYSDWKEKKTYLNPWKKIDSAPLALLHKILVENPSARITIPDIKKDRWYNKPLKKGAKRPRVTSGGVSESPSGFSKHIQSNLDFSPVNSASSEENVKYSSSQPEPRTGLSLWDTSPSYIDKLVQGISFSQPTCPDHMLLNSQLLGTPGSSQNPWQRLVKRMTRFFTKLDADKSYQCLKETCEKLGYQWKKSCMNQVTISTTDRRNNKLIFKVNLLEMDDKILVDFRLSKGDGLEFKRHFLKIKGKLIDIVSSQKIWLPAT
Method in brief: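 Full-length C-terminally His-tagged human CHK1 expressed in baculovirus/insect cells, used at 10 nM with Syntide-2 substrate. ADP formation coupled via PK/LDH to NADH oxidation, followed as absorbance decrease at 340 nm. Ki from initial rates at varying compound concentrations.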

LCK tyrosine kinase = molecular target: T2, LCK tyrosine kinase (Homo sapiens, UniProt P06239, C224D/P223M); experiment: LCK spectrophotometric assay; format: biochemical; conditions: Table 1; for pKi: read-out: Lck-P Ki; for inhibition at 1 µM: read-out: Lck-P % inhibition
T2 construct: starting from amino acid residue 223 to the end of the protein at residue 509; made in house; host or cells: insect cells
T2 sequence (P06239 223-509 P223M/C224D): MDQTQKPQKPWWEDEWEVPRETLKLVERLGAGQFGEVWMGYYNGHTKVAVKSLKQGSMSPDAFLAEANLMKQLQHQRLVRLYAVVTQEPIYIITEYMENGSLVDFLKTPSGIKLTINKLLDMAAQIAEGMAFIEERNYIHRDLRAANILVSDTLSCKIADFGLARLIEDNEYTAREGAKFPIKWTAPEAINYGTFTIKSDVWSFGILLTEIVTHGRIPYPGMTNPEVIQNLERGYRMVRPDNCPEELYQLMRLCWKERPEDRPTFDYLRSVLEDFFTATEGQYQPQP
Procedure: The production of ADP from ATP that accompanies phosphoryl transfer was coupled to oxidation of NADH using phosphoenolpyruvate (PEP) and a system having pyruvate kinase (PK) and lactic dehydrogenase (LDH). The oxidation of NADH was monitored by following the decrease of absorbance at 340 nm (e340=6.22 cm^−1 mM^−1) using a Beckman DU 650 spectrophotometer. […] Ki values were determined by measuring enzyme activity in the presence of varying concentrations of test compounds. The data were analyzed using Enzyme Kinetic and Kaleidagraph software.
The spectrophotometric assay was carried out as described above for VEGF-R2, except for the following changes in concentration: LCK=60 nM, MgCl2=0 mM, poly(E4Y1)=20 mM.

[3] = test system: human umbilical vein endothelial cells (HUVEC); experiment: HUVEC proliferation assay (VEGF-stimulated, MTT); format: cell-based; conditions: Homo sapiens, HUVEC
human FGF-R1 = human FGF-R1 (Homo sapiens, UniProt P11362, C488A/C584S/L457V); experiment: FGF-R spectrophotometric assay; conditions: for inhibition at 1 µM: read-out: FGF-P % inhibition, Table 1
human FGF-R1, sequence (P11362 456-766 L457V/C488A/C584S): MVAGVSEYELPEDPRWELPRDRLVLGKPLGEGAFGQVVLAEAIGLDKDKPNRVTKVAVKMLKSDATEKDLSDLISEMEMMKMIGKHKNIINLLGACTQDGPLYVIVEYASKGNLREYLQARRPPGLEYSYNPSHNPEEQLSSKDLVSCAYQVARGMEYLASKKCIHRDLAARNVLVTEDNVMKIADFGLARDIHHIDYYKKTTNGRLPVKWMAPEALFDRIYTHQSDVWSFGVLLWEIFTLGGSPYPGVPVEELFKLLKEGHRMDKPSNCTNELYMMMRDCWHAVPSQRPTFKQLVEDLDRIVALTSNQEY

CDK2/Cyclin A = CDK2/Cyclin A (Homo sapiens, UniProt P24941); experiment: CDK2/Cyclin A assay ([32P]ATP, Rb fragment); format: biochemical; conditions: Table 3
CDK1 = CDK1 (Homo sapiens, UniProt P06493); experiment: CDK1 inhibition; format: biochemical; conditions: Table 3
CDK1, sequence (P06493 whole entry, species assumed): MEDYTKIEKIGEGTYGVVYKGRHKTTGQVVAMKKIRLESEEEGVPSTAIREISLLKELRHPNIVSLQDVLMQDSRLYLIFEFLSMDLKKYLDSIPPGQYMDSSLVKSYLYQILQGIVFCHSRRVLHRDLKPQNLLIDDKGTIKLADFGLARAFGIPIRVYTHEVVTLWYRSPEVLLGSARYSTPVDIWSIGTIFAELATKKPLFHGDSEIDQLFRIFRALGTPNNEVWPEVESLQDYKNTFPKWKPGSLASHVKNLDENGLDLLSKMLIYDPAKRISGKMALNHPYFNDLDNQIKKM
CDK1, sequence (P14635 whole entry partner, species assumed): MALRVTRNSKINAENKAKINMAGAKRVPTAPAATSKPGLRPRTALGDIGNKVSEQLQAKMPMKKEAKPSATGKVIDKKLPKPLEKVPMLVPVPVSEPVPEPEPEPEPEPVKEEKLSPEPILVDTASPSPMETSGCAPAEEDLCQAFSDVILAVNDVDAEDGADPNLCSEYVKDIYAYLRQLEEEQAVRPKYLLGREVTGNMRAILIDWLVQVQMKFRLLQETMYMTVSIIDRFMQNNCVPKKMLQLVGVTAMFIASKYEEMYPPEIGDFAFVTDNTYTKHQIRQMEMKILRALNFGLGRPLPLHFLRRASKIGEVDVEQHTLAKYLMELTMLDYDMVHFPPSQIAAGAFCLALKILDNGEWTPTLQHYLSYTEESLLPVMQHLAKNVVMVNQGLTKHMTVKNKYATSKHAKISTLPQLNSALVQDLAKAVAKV

[4] = Determination of inhibitor concentration in mouse plasma after intraperitoneal and oral dosing; format: in vivo; conditions: for concentration at 7 h: female
Method in brief: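 Mice dosed intraperitoneally or orally; blood taken by ocular bleed at 0.5, 1 and 4 h and by intracardiac puncture at 7 h. Plasma extracted with ethyl acetate after internal standard and NaOH addition, analysed by HPLC or LC-MS against a mouse-plasma standard curve.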

[5] = Human liver microsome (HLM) assay; format: in vitro ADME; conditions: human liver microsomes, 5 μM test compound
Method in brief: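 Compound metabolism in human liver microsomes measured in triplicate. Samples at 0 and 2 h centrifuged at 14000 g for 10 min and analysed by LC-MS.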

[6] = + albumin, read-out: HUVEC + albumin IC50
[7] = IP, 25 mg/kg, vehicle PEG400:H2O pH 2.3 60:40
[8] = PO, 50 mg/kg, vehicle PEG400:H2O pH 2.3 60:40
[9] = IP, 25 mg/kg, vehicle PEG400:H2O pH 2.3 60:40, read-out: Cmin (7 hr conc.)
[10] = PO, 50 mg/kg, vehicle PEG400:H2O pH 2.3 60:40, read-out: Cmin (7 hr conc.)
[11] = PO, 25 mg/kg, vehicle PEG400:H2O pH 2.3 30:70
[12] = PO, 25 mg/kg, vehicle PEG400:H2O pH 2.3 30:70, read-out: Cmin (7 hr conc.)
[13] = IP, 25 mg/kg, vehicle PEG400:H2O pH 2.3 30:70
[14] = PO, 50 mg/kg, vehicle PEG400:H2O pH 2.3 30:70

Structure (SMILES): Oc1cccc(Oc2ccc3c(/C=C/c4ccccc4)n[nH]c3c2)c1 [Example 9(a), 3-(E-styryl)-6-[3-hydroxyphenoxy]-1H-indazole]
- pKi (CDK4/Cyclin D3 complex): 5.77
- pKi [1]: 8.62
- pKi [2]: 7.80
- pKi (human CHK1 (FL-CHK1); Table 1): 6.40
- pKi (LCK tyrosine kinase): 6.79

Structure (SMILES): O=C(c1cccc(NC(=O)c2ccno2)c1)c1ccc2c(/C=C/c3ccccc3)n[nH]c2c1 [Example 19(l)]
- pIC50 [3, 6]: 7.00
- inhibition at 1 µM (human FGF-R1; compound concentration 1 μM): 88%
- pKi [1]: 9.14
- pKi [2]: 8.33
- inhibition at 1 µM (LCK tyrosine kinase; compound concentration 1 μM): 36%

Structure (SMILES): C(=C\c1n[nH]c2cc(-c3ccncc3)ccc12)/c1ccccc1 [Example 27(f)]
- pKi (CDK4/Cyclin D3 complex): 6.11
- pKi (CDK2/Cyclin A): 5.48
- pKi (CDK1): 6.65
- pKi (human CHK1 (FL-CHK1); Table 3): 6.46

Structure (SMILES): Cc1cccc(/C=C/c2n[nH]c3cc(-c4ccncc4)ccc23)c1 [Example 29(b), 6-Pyrid-4-yl-3-E-[2-(3-methylphenyl)ethenyl]-1H-indazole]
- pKi (CDK4/Cyclin D3 complex): 5.41
- pKi (CDK2/Cyclin A): 5.52
- pKi (CDK1): 6.05

Structure (SMILES): O=C(c1cccc(NC(=O)c2ccccn2)c1)c1ccc2c(/C=C/c3ccccn3)n[nH]c2c1 [Example 41(aa), 6-[3-(Pyridin-2-ylcarboxamido)benzoyl]-3-E-[2-(pyridin-2-yl)ethenyl]-1H-indazole]
- pIC50 [3, 6]: 8.28
- pIC50 ([3]; read-out: HUVEC IC50): 9.00
- inhibition at 1 µM (human FGF-R1; compound concentration 1 μM): 37%
- pKi [1]: 9.96
- AUClast [4, 7]: 6659 ng·h/mL
- plasma half-life (T1/2) [4, 7]: 2.1 h
- AUClast [4, 8]: 289 ng·h/mL
- plasma half-life (T1/2) [4, 8]: 0.9 h
- concentration at 7 h [4, 9]: 124 ng/mL
- concentration at 7 h [4, 10]: 5 ng/mL
- inhibition at 1 µM (LCK tyrosine kinase; compound concentration 1 μM): 49%

Structure (SMILES): CCCn1nc(C)cc1C(=O)Nc1cc(C(=O)c2ccc3c(/C=C/c4ccccn4)n[nH]c3c2)ccc1C [Example 41(ii), 6-[3-((1-n-Propyl-3-methyl-1H-pyrazol-5-yl)carboxamido)-4-methylbenzoyl]-3-E-[2-(pyridin-2-yl)ethenyl]-1H-indazole]
- pIC50 [3, 6]: 7.89
- pKi (human FGF-R1): 7.96
- inhibition at 0.05 µM ([1]; read-out: FLVK % inhibition): 57%
- AUClast [4, 11]: 7094 ng·h/mL
- Cmax [4, 11]: 1826 ng/mL
- plasma half-life (T1/2) [4, 11]: 2.3 h
- concentration at 7 h [4, 12]: 346 ng/mL
- inhibition at 1 µM (LCK tyrosine kinase; compound concentration 1 μM): 18%

Structure (SMILES): Cc1cnccc1C(=O)Nc1cccc(C(=O)c2ccc3c(/C=C/c4ccccn4)n[nH]c3c2)c1 [Example 41(j), 6-[3-((3-Methylpyridin-4-yl)carboxamido)benzoyl]-3-E-[2-(pyridin-2-yl)ethenyl]-1H-indazole]
- pIC50 [3, 6]: 8.11
- inhibition at 1 µM (human FGF-R1; compound concentration 1 μM): 41%
- inhibition at 0.05 µM ([1]; read-out: FLVK % inhibition): 98%
- AUClast [4, 11]: 1476 ng·h/mL
- plasma half-life (T1/2) [4, 11]: 1.3 h
- concentration at 7 h [4, 12]: 17 ng/mL
- inhibition at 1 µM (LCK tyrosine kinase; compound concentration 1 μM): 16%

Structure (SMILES): O=C(c1cccc(NC(=O)C2C[C@H]2c2ccccc2)c1)c1ccc2c(/C=C/c3ccccn3)n[nH]c2c1 (stereo partly drawn) [Example 41(l), 6-[3-((2-RS-trans-Phenylcyclopropyl)carboxamido)benzoyl]-3-E-[2-(pyridin-2-yl)ethenyl]-1H-indazole]
- FGF-P % inhibition (human FGF-R1; Table 1, compound concentration 1 μM, 1 µM): 66%
- inhibition at 1 µM (human FGF-R1; compound concentration 1 μM): 76%
- pKi [1]: 10.40 and 9.62
- AUClast [4, 13]: 1854 ng·h/mL
- Cmax [4, 13]: 623 ng/mL
- plasma half-life (T1/2) [4, 13]: 3.1 h
- AUClast [4, 14]: 212 ng·h/mL
- Cmax [4, 14]: 104 ng/mL
- plasma half-life (T1/2) [4, 14]: 0.5 h
- concentration at 7 h ([4]; IP, 25 mg/kg, vehicle PEG400:H2O pH 2.3 30:70, read-out: Cmin (7 hr conc.)): 102 ng/mL
- concentration at 7 h ([4]; PO, 50 mg/kg, vehicle PEG400:H2O pH 2.3 30:70, read-out: Cmin (7 hr conc.)): 0 ng/mL
- Lck-P % inhibition (LCK tyrosine kinase; compound concentration 1 μM, 1 µM): 38%* and 63%*

Structure (SMILES): CCn1nc(C)cc1C(=O)Nc1cc(C(=O)c2ccc3c(/C=C/c4ccccn4)n[nH]c3c2)c(C)cc1C [Example 41(ll), 6-[2,4-Dimethyl-5-((1-Ethyl-3-methyl-1H-pyrazol-5-yl)carboxamido)benzoyl]-3-E-[2-(pyridin-2-yl)ethenyl]-1H-indazole]
- pIC50 [3, 6]: 7.64
- inhibition at 1 µM (human FGF-R1; compound concentration 1 μM): 91%
- inhibition at 0.05 µM ([1]; read-out: FLVK % inhibition): 95%
- inhibition at 1 µM (LCK tyrosine kinase; compound concentration 1 μM): 14%

Structure (SMILES): O=C(Nc1cccc(C(=O)c2ccc3c(/C=C/c4ccccn4)n[nH]c3c2)c1)c1ccccc1 [Example 42(a), 6-(3-Benzamidobenzoyl)-3-E-[2-(pyridin-2-yl)ethenyl]-1H-indazole]
- % remain (HLM, 2 h) [5]: 92%
- pKi (human FGF-R1): 7.19
- pKi [1]: 10.34
- AUClast [4, 7]: 19899 ng·h/mL
- plasma half-life (T1/2) [4, 7]: 5.0 h
- AUClast [4, 8]: 8384 ng·h/mL
- plasma half-life (T1/2) [4, 8]: 2.0 h
- concentration at 7 h [4, 9]: 1640 ng/mL
- concentration at 7 h [4, 10]: 341 ng/mL
- pKi (LCK tyrosine kinase): 7.28

Structure (SMILES): O=C(Nc1cc(Nc2ccc3c(/C=C/c4ccccc4)n[nH]c3c2)ccc1F)c1ccccc1 [Example 47, 6-[N-(3-Benzamido-4-fluorophenyl)amino]-3-E-styryl-1H-indazole]
- inhibition at 1 µM (human FGF-R1; compound concentration 1 μM): 88%
- pKi [1]: 9.60
- AUClast [4, 13]: 236 ng·h/mL
- Cmax [4, 13]: 39 ng/mL
- plasma half-life (T1/2) [4, 13]: 19.9 h
- AUClast [4, 14]: 327 ng·h/mL
- Cmax [4, 14]: 84 ng/mL
- plasma half-life (T1/2) [4, 14]: 3.4 h
- inhibition at 1 µM (LCK tyrosine kinase; compound concentration 1 μM): 50%

Structure (SMILES): C(=C\c1n[nH]c2cc(-c3ccnc4[nH]ncc34)ccc12)/c1ccccc1 [Example 52(a), 6-(7-Azaindazol-4-yl)-3-E-styryl-1H-indazole]
- inhibition at 1 µM ([1]; read-out: FLVK % inhibition): 60%
- inhibition at 1 µM (CDK1; compound concentration 1 μM): 39%
